Reference: US9237747B2, “Herbicidal compositions comprising 4-amino-3-chloro-5-fluoro-6-(4-chloro-2-fluoro-3-methoxyphenyl) pyridine-2-carboxylic acid or a derivative thereof and insecticides” (priority 2013, dated 2016)
Read-outs that look alike come from different tables or passages of the source.

Legend:
[1] = tested on: IPOHE; assay type: in vivo, Ipomoea hederacea
Description: (§1) Seeds or nutlets of the desired test plant species were planted in a soil matrix prepared by mixing a loam or sandy loam soil (e.g., 28.6 percent silt, 18.8 percent clay, and 52.6 percent sand, with a pH of about 5.8 and an organic matter content of about 1.8 percent) and calcareous grit in an 80 to 20 ratio. The soil matrix was contained in plastic pots with a volume of 1 quart and a surface area of 83.6 square centimeters (cm^2). […] The plants were grown for 8-22 days in a greenhouse with an approximate 14 hour (h) photoperiod which was maintained at about 29° C. during the day and 26° C. during the night. Nutrients (Peters Excel® 15-5-15 5-Ca 2-Mg and iron chelate) were applied in the irrigation solution as needed and water was added on a regular basis. Supplemental lighting was provided with overhead metal halide 1000-Watt lamps as necessary. The plants were employed for testing when they reached the first through fourth true leaf stage.
(§2) Treatments consisted of the acid or esters of 4-amino-3-chloro-6-(4-chloro-2-fluoro-3-methoxyphenyl)-5-fluoropyridine-2-carboxylic acid (Compound A), each formulated as an SC (suspension concentrate), and various insecticidal components alone and in combination. Forms of compound A were applied on an acid equivalent basis.
(§3) For treatments comprised of formulated compounds, measured amounts of compounds were placed individually in 25 mL glass vials and diluted in a volume of 1.25% volume per volume (v/v) Agri-Dex® crop oil concentrate to obtain 12× stock solutions. […] Application solutions were prepared by adding an appropriate amount of each stock solution (e.g., 1 mL) and diluted to the appropriate final concentrations with the addition of […] of an aqueous mixture of 1.25% (v/v) crop oil concentrate so that the final spray solutions contained 1.25+/−0.05% (v/v) crop oil concentrate.
(§4) As required, additional water and/or 97:3 v/v acetone/DMSO was added to individual application solutions so that the final acetone and DMSO concentrations of the application solutions being compared were 8.1% and 0.25%, respectively.
(§5) All stock solutions and applications solutions were visually inspected for compound compatibility prior to application. Spray solutions were applied to the plant material with an overhead Mandel track sprayer equipped with 8002E nozzles calibrated to deliver 187 L/ha over an application area of 0.503 square meters (m^2) at a spray height of 18 to 20 inches (46 to 50 cm) above average plant canopy height. Control plants were sprayed in the same manner with the solvent blank.
(§6) The treated plants and control plants were placed in a greenhouse as described above and watered by sub-irrigation to prevent wash-off of the test compounds. After approximately 3 weeks, the condition of the test plants as compared to that of the untreated plants was determined visually and scored on a scale of 0 to 100 percent where 0 corresponds to no injury or growth inhibition and 100 corresponds to complete kill.
(§7) Colby's equation was used to determine the herbicidal effects expected from the mixtures (Colby, S. R. Calculation of the synergistic and antagonistic response of herbicide combinations. Weeds 1967, 15, 20-22.).
(§8) The following equation was used to calculate the expected activity of mixtures containing two active ingredients, A and B: Expected=A+B−(A×B/100)

[2] = tested on: ECHCG; assay type: in vivo, Echinochloa crus-galli; settings: 21 DAA; 35 g ai/ha alone
Description: as §1, §2, §3, §4, §5, §6, §7, §8

[3] = tested on: ECHCO; test: Postemergence foliar-applied weed control, direct-seeded rice (greenhouse); assay type: in vivo, Echinochloa colonum; settings: 19 DAA
Description: as §1, §2, §3, §4, §5, §6, §7, §8

[4] = tested on: LEFCH; test: whole plant or invertebrate; assay type: in vivo, Leptochloa chinensis
Description: as §1, §2, §3, §4, §5, §6, §7, §8

[5] = tested on: CYPES; assay type: in vivo, Cyperus esculentus
Description: as §1, §2, §3, §4, §5, §6, §7, §8

CC1(C)[C@H](C(=O)O[C@H](C#N)c2cccc(Oc3ccccc3)c2)[C@@H]1/C=C(\Cl)C(F)(F)F (racemic) [Lambda cyhalothrin]
0%: Visual Weed Control (%) - 21 DAA IPOHE Obs ([1]; 21 DAA, 35 g ai/ha alone) | Visual Weed Control (%) - 21 DAA ECHCG Obs [2]

COP(N)(=O)SC (stereo not drawn) [Methamidophos, O,S-dimethyl phosphoramidothioate, reference compound]
0%: Visual Weed Control (%) - 19 DAA IPOHE Obs ([1]; 112 g ai/ha alone) | Visual Weed Control (%) - 19 DAA IPOHE Obs ([1]; 224 g ai/ha alone) | Visual Weed Control (%) - 19 DAA ECHCO Obs ([3]; 112 g ai/ha alone) | Visual Weed Control (%) - 19 DAA ECHCO Obs ([3]; 224 g ai/ha alone)

spinetoram
0%: Visual Weed Control (%) - 19 DAA ECHCO Obs ([3]; 30 g ai/ha alone) | Visual Weed Control (%) - 19 DAA ECHCO Obs ([3]; 60 g ai/ha alone) | Visual Weed Control (%) - 19 DAA ECHCO Obs ([3]; 120 g ai/ha alone) | Visual Weed Control (%) - 19 DAA LEFCH Obs ([4]; 30 g ai/ha alone) | Visual Weed Control (%) - 19 DAA LEFCH Obs ([4]; 60 g ai/ha alone) | Visual Weed Control (%) - 19 DAA LEFCH Obs ([4]; 120 g ai/ha alone)

CNC(=O)Oc1cccc2c1OC(C)(C)C2 [Carbofuran, 2,3-dihydro-2,2-dimethylbenzofuran-7-yl methylcarbamate]
0%: Visual Weed Control (%) - 21 DAA IPOHE Obs ([1]; 500 g ai/ha alone) | Visual Weed Control (%) - 21 DAA LEFCH Obs ([4]; 500 g ai/ha alone) | Visual Weed Control (%) - 20 DAA CYPES Obs ([5]; 125 g ai/ha alone) | Visual Weed Control (%) - 20 DAA CYPES Obs ([5]; 250 g ai/ha alone)

spinosad [reference compound]
0%: Visual Weed Control (%) - 21 DAA IPOHE Obs ([1]; 21 DAA, 70 g ai/ha alone) | Visual Weed Control (%) - 21 DAA IPOHE Obs ([1]; 21 DAA, 140 g ai/ha alone) | Visual Weed Control (%) - 21 DAA IPOHE Obs ([1]; 21 DAA, 280 g ai/ha alone) | Visual Weed Control (%) - 21 DAA LEFCH Obs ([4]; 21 DAA, 140 g ai/ha alone) | Visual Weed Control (%) - 21 DAA LEFCH Obs ([4]; 21 DAA, 280 g ai/ha alone)
